Source: paper PMC7613998, “Development of selective inhibitors of phosphatidylinositol 3-kinase C2α” (Nature Chemical Biology, 2022)

Columns and labels:
Experiment in all cases: biochemical
Set-up in all cases: SelectScreen LanthaScreen kinase binding assay, per cent tracer displacement, mean of two points
Conditions in all cases: tracer displacement
[1] = target: T1, ADCK3 (Homo sapiens, UniProt Q8NI60)
T1 construct: gene COQ8A

[2] = target: BRAF (Homo sapiens, UniProt P15056)
[3] = target: KIT D816V (Homo sapiens, UniProt P10721, D816V)
[4] = target: KIT V559D T670I (Homo sapiens, UniProt P10721, T670I/V559D)
[5] = target: MAP2K2 (MEK2) (Homo sapiens, UniProt P36507)
[6] = target: T2, MAP3K7/MAP3K7IP1 (TAK1-TAB1) (Homo sapiens, UniProt O43318)
T2 construct: TAK1-TAB1
T2 sequence (O43318 1-606): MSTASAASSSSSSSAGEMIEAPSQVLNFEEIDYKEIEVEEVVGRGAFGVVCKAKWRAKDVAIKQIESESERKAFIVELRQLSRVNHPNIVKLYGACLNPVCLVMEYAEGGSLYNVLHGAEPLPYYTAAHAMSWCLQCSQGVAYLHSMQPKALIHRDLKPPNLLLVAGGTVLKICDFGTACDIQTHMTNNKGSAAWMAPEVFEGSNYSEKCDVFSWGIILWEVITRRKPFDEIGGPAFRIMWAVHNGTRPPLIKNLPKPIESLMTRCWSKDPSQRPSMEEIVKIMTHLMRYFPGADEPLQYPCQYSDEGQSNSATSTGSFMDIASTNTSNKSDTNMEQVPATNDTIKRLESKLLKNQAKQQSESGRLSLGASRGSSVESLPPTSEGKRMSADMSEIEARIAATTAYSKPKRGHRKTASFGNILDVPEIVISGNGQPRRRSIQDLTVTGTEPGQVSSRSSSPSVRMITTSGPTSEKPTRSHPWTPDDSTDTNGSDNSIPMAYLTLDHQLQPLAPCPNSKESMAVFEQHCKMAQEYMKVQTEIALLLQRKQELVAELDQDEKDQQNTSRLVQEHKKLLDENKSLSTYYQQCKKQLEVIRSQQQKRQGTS
T2 sequence (Q15750 1-504 partner): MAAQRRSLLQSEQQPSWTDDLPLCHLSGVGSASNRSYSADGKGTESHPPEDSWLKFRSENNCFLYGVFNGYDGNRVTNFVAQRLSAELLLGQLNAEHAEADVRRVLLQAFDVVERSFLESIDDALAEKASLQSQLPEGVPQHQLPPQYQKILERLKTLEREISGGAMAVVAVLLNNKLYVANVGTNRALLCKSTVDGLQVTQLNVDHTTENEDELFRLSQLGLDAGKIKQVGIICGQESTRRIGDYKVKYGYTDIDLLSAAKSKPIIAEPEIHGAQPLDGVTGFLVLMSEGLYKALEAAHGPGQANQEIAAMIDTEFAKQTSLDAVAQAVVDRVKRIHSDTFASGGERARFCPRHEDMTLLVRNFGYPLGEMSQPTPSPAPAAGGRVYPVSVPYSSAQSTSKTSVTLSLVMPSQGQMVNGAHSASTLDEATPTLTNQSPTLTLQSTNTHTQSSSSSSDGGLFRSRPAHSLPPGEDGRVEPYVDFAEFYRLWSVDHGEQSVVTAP

[7] = target: MKNK2 (MNK2) (Homo sapiens, UniProt Q9HBH9)
[8] = target: RAF1 (cRAF) Y340D Y341D (Homo sapiens, UniProt P04049, Y340D/Y341D)
[9] = target: T3, STK17B (DRAK2) (Homo sapiens, UniProt O94768)
T3 sequence (O94768 1-372): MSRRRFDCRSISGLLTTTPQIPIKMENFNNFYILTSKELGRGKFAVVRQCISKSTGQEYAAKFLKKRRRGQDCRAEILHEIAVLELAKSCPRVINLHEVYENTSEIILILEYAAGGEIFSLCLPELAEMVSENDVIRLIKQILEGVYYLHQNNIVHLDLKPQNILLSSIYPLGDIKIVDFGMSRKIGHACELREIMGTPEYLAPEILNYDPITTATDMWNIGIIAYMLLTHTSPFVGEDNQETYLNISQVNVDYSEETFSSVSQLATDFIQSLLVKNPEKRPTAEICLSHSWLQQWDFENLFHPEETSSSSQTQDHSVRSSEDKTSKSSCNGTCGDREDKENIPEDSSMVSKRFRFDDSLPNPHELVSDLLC

[10] = target: TNIK (Homo sapiens, UniProt Q9UKE5)
[11] = target: WNK1 (Homo sapiens, UniProt Q9H4A3)
Sequence of WNK1 (Q9H4A3 whole entry): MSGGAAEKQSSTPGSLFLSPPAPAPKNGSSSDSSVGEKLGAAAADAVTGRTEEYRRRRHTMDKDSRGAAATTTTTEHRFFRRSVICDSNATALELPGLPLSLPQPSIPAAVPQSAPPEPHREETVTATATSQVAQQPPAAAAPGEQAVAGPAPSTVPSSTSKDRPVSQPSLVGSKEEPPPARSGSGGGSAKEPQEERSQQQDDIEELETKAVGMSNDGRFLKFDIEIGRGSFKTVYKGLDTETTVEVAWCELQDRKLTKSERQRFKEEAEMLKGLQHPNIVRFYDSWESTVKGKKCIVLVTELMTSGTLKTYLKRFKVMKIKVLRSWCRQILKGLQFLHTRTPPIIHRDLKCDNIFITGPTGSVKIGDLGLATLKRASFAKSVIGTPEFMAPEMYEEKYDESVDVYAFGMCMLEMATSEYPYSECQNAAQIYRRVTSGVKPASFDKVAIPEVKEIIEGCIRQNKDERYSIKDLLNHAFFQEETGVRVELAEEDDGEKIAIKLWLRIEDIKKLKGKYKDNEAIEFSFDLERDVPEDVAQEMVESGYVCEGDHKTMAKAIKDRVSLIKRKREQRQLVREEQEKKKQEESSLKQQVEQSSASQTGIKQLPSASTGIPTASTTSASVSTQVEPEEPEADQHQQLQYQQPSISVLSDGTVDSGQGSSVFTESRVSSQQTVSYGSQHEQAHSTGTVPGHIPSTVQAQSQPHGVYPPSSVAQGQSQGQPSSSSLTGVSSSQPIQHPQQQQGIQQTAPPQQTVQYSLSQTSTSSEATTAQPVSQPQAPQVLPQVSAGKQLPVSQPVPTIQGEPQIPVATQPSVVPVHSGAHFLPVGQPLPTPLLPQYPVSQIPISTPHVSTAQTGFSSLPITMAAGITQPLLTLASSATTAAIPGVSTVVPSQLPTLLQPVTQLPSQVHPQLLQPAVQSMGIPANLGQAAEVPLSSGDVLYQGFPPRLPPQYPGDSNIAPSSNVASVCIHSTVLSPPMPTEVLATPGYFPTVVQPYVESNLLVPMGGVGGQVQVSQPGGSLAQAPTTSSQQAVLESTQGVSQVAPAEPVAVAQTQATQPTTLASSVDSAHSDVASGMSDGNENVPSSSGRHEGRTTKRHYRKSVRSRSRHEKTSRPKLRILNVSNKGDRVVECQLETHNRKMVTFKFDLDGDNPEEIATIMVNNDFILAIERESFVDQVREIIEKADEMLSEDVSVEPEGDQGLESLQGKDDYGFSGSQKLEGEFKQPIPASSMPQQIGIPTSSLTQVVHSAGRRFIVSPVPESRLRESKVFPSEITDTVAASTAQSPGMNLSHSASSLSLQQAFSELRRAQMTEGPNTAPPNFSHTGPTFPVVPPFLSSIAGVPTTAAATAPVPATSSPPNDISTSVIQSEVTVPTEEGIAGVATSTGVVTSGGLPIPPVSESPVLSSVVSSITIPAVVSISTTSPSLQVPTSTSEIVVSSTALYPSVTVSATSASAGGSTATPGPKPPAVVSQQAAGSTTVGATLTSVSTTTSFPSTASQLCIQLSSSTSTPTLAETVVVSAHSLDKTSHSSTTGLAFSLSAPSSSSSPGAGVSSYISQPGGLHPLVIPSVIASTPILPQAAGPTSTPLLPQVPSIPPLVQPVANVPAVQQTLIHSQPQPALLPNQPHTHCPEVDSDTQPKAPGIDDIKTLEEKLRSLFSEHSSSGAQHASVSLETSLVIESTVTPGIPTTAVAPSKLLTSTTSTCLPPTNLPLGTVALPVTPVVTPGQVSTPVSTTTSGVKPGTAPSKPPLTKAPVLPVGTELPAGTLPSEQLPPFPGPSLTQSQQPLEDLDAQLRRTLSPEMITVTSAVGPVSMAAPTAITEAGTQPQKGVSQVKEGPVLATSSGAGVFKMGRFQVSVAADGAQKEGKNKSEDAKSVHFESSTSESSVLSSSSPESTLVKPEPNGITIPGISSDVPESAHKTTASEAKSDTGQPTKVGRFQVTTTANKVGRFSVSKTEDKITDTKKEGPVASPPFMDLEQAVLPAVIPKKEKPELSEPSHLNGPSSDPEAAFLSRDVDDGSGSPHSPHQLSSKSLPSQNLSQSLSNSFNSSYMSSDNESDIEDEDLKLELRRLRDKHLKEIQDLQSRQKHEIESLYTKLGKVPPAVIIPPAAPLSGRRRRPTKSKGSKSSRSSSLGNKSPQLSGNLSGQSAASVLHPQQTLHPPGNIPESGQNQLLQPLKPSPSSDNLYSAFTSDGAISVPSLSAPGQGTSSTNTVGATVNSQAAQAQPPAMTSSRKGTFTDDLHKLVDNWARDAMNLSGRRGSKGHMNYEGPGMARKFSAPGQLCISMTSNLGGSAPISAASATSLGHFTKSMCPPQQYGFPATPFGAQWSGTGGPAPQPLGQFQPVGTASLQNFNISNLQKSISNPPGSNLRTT

Sequence of KIT V559D T670I (P10721 whole entry V559D/T670I): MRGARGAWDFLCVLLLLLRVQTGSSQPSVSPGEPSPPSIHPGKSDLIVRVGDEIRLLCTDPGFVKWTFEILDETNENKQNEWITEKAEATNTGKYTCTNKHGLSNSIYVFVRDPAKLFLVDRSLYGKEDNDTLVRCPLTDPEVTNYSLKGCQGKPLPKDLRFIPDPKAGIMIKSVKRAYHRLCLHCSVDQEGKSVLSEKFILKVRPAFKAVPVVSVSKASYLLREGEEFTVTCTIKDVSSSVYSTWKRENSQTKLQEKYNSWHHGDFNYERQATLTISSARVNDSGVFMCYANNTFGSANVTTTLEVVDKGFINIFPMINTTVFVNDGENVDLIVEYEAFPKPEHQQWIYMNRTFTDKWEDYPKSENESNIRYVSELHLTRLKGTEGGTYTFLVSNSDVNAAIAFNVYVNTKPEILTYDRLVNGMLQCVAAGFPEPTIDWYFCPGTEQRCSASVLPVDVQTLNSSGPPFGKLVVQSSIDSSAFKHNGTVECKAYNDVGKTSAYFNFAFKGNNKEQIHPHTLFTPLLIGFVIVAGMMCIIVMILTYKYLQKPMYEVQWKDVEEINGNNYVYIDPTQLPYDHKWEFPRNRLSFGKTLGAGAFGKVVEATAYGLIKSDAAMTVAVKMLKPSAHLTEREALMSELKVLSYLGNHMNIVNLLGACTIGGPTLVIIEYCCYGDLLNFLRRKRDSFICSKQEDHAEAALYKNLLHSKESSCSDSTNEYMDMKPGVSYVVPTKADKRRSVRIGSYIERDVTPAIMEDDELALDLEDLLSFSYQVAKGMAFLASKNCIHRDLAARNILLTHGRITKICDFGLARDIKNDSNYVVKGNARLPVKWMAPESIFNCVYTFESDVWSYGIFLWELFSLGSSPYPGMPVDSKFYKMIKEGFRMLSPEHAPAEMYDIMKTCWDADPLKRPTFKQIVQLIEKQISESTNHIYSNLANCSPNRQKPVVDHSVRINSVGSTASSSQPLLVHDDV
Sequence of MKNK2 (MNK2) (Q9HBH9 whole entry): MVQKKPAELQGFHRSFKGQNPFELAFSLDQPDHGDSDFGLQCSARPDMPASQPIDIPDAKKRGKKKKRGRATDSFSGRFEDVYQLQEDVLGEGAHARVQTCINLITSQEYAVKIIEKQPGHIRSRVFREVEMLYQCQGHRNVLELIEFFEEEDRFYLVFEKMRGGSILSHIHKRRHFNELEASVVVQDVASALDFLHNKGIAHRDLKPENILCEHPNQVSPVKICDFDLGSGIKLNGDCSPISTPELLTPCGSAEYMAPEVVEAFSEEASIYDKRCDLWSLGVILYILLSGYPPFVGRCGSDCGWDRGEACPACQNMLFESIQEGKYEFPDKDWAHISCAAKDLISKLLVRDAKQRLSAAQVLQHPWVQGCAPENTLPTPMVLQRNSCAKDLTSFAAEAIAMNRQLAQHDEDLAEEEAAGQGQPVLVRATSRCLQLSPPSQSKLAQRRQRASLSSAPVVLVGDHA
Sequence of KIT D816V (P10721 whole entry D816V): as the sequence (P10721 whole entry V559D/T670I) above, with D559V, I670T, D816V counted along it
Sequence of RAF1 (cRAF) Y340D Y341D (P04049 whole entry Y340D/Y341D): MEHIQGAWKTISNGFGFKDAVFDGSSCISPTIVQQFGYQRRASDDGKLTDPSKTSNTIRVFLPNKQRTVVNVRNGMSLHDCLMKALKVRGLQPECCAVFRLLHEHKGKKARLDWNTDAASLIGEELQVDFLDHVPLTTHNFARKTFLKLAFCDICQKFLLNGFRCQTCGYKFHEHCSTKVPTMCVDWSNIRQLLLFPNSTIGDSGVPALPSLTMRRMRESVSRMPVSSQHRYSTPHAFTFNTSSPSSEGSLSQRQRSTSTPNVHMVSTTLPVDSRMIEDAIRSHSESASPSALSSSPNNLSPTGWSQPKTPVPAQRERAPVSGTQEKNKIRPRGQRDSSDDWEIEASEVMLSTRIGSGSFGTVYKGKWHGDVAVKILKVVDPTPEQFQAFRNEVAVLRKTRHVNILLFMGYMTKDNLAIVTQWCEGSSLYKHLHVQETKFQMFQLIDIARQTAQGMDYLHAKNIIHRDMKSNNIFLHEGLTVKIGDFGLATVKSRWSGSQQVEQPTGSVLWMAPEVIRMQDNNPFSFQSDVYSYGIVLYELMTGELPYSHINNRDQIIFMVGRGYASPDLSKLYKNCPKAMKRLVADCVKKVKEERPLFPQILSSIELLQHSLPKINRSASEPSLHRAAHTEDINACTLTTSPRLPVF
Sequence of MAP2K2 (MEK2) (P36507 whole entry): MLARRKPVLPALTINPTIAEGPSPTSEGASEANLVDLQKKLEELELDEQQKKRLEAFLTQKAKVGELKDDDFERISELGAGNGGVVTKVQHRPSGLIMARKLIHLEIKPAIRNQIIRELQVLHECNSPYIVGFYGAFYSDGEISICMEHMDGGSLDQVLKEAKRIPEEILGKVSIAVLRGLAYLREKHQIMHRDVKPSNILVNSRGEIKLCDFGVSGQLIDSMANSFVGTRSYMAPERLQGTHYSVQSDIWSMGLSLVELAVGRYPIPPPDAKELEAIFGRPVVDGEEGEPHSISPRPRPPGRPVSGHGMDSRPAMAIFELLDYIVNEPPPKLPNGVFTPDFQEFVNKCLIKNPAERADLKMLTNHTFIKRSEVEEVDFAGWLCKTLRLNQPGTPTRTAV

inhibition at 1 µM [1]	inhibition at 3 µM [1]	inhibition at 10 µM [1]	inhibition at 1 µM [2]	inhibition at 3 µM [2]	inhibition at 10 µM [2]	inhibition at 1 µM [3]	inhibition at 3 µM [3]	inhibition at 10 µM [3]	inhibition at 1 µM [4]	inhibition at 3 µM [4]	inhibition at 10 µM [4]	inhibition at 1 µM [5]	inhibition at 3 µM [5]	inhibition at 10 µM [5]	inhibition at 1 µM [6]	inhibition at 3 µM [6]	inhibition at 10 µM [6]	inhibition at 1 µM [7]	inhibition at 3 µM [7]	SMILES	further results
8.78%	18.3%	9.67%	6.15%	7.18%	9.11%	6.33%	6.29%	5.56%	-12.1%	0.144%	1.37%	0.637%	2.82%	-3.31%	-2.55%	-10.1%	-10.1%	-4.48%	1.13%	CS(=O)(=O)Nc1cccc(-c2csc(NC(=O)CSc3nc4nccnc4c(=O)n3CCc3ccccc3)n2)c1 [compound 3, PITCOIN3]	inhibition at 10 µM [7]: -10.9%; inhibition at 1 µM [8]: -1.02%; inhibition at 3 µM [8]: 3.96%; inhibition at 10 µM [8]: 3.33%; inhibition at 1 µM [9]: -7.55%; inhibition at 3 µM [9]: -5.4%; inhibition at 10 µM [9]: 11.1%; inhibition at 1 µM [10]: 4.57%; inhibition at 3 µM [10]: 2.17%; inhibition at 10 µM [10]: -4.46%; inhibition at 1 µM [11]: -2.33%; inhibition at 3 µM [11]: -3.62%; inhibition at 10 µM [11]: 0.594%
-3.76%	8.79%	13.7%	-3.95%	1.69%	0.837%	-3.29%	2.7%	-1.13%	-4.48%	0.47%	6.38%	-3%	2.42%	-1.45%	-3.93%	-9.87%	-11.5%	-2.8%	-3.55%	O=C(CSc1nc2nccnc2c(=O)n1CCc1ccccc1)Nc1nccs1 [compound 1, PITCOIN1]	inhibition at 10 µM [7]: -10.1%; inhibition at 1 µM [8]: -5.58%; inhibition at 3 µM [8]: -2.49%; inhibition at 10 µM [8]: -0.882%; inhibition at 1 µM [9]: -6.01%; inhibition at 3 µM [9]: 2.55%; inhibition at 10 µM [9]: 4.06%; inhibition at 1 µM [10]: -4.88%; inhibition at 3 µM [10]: -3.23%; inhibition at 10 µM [10]: -2.09%; inhibition at 1 µM [11]: -6.21%; inhibition at 3 µM [11]: -5.06%; inhibition at 10 µM [11]: -3.46%
